Like-named read-outs stand apart in the source and are kept apart here.
Columns and labels:
Assay type in all cases: in vivo
[1] = test system: Magnaporthe oryzae; test: whole plant or invertebrate; details: for inhibition at 500 µM / inhibition at 100 µM: Pyricularia oryzae, read-out: inhibition rate on the number of necrotic spots
[2] = test system: Bipolaris maydis; test: whole plant or invertebrate; details: for inhibition at 500 µM: Bipolaris maydis, in Zea mays, read-out: inhibition rate on the formation of disease spots
[3] = test system: Magnaporthe oryzae; test: whole plant or invertebrate; details: Pyricularia oryzae, read-out: inhibition rate of formation of rice blast necrotic spots, prevention experimental group
[4] = test system: Magnaporthe oryzae; test: whole plant or invertebrate; details: Pyricularia oryzae, read-out: inhibition rate of formation of rice blast necrotic spots, treatment experimental group
[5] = test system: Blumeria graminis; test: Pathogenicity of Blumeria graminis on wheat leaves; details: 500 μmol/L, vs DMSO

SMILES | inhibition at 500 µM [1] | inhibition at 500 µM [2] | inhibition at 100 µM [1] | inhibition at 500 µM [3] | inhibition at 500 µM [4] | inhibition of formation of disease spots on corn leaves (in words) ([2]; in vivo) | inhibition of the number of necrotic spots of Magnaporthe oryzae (in words) ([1]; drug concentration 100 μM, 30 seedlings sprayed with 5 mL, rice) | inhibition of occurrence of Blumeria graminis disease spots (in words) [5]
CCCCOCN(C(=O)CCl)c1c(CC)cccc1CC [Butachlor] | > 50% | > 50% |  |  |  |  |  | 
CCN(CC)C(=O)n1cnc(S(=O)(=O)c2c(C)cc(C)cc2C)n1 [Cafenstrole] | > 50% | > 50% | > 50% | > 50% | > 50% |  |  | 
CC(C)N(C(=O)SC/C(Cl)=C/Cl)C(C)C [Diallate] | > 50% |  | > 50% | > 50% | > 50% |  |  | 
CC(C)N(C(=O)COc1nnc(C(F)(F)F)s1)c1ccc(F)cc1 [Flufenacet] |  |  |  |  |  | not obvious |  | 
Cc1cccc(C)c1N(Cn1cccn1)C(=O)CCl [Metazachlor] | > 50% | > 50% | > 50% | > 50% | > 50% |  |  | 
CC(C)N(C(=O)CCl)c1ccccc1 [Propachlor] |  | > 50% |  |  |  |  | insignificant inhibitory effect on rice blast | all drugs except Propachlor could inhibit the occurrence of Blumeria graminis disease spots

Source: US20220095622A1, “Application of Compounds Inhibiting Synthesis of Very Long Chain Fatty Acids in Preventing and Treating Microbial Pathogens and Method Thereof” (Sichuan Agricultural University, priority 2019, published 2022)
